From patent US20120277209A1, “PYRAZINE COMPOUNDS AS PHOSPHODIESTERASE 10 INHIBITORS” (Amgen Inc., priority 2009, published 2012) come the findings set out here.

One assay deals with PDE10 (UniProt Q9Y233). Put plainly: PDE10 enzyme inhibition, IMAP TR-FRET assay (MPDE10A7 Enzyme Activity and Inhibition). The assay is classed as biochemical. Conditions: IC50 class against PDE10; read-out: IC50. In short, it runs like this: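 PDE10A enzyme or tissue homogenate preincubated with compounds 30 min at room temperature, then fluorescein-labelled cAMP or cGMP added for 60 min. IMAP binding reagent stop, TR-FRET read. Values are mean IC50s, grouped into five potency classes.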
On the technique in general: Time-resolved FRET reads energy transfer from a long-lived donor to a nearby acceptor.
Regarding `Fc1ccc2nc(Nc3ccc(Oc4nccnc4Cl)cc3)sc2c1` [Example 62, N-(4-(3-CHLOROPYRAZIN-2-YLOXY)PHENYL)-6-FLUOROBENZO[D]THIAZOL-2-AMINE], the IC50 (as a rule, the concentration needed to halve the response being measured) was in the range of 1000 to 5000 nM. For the compound `O=C(c1ccc(Oc2nccnc2C2(F)CCOCC2)cc1)c1nc2ccccc2[nH]1` [Example 203, (1H-BENZO[D]IMIDAZOL-2-YL)(4-(3-(4-FLUOROTETRAHYDRO-2H-PYRAN-4-YL)PYRAZIN-2-YLOXY)PHENYL)METHANONE], the IC50 was below 25 nM. Still for that read-out and setting: in the case of `Cn1c(C(=O)c2ccc(Oc3nccnc3C3CCOCC3)cc2)nc2ccccc21` [Example 184, (1-methyl-1H-benzo[d]imidazol-2-yl)(4-(3-(tetrahydro-2H-pyran-4-yl)pyrazin-2-yloxy)phenyl)methanone] it was below 25 nM. The same measure, in the same setting: for `COc1ncccc1-c1nccnc1Oc1ccc(Nc2nc3cc(F)ccc3s2)cc1` [Example 154, 5-fluoro-N-(4-(3-(2-methoxypyridin-3-yl)pyrazin-2-yloxy)phenyl)benzo[d]thiazol-2-amine] the value was 25 to 100 nM; for `COc1cc(-c2nccnc2Oc2ccc(C(=O)c3nc4ccccc4[nH]3)cc2)ccn1` [Example 120, (1H-benzo[d]imidazol-2-yl)(4-(3-(2-methoxypyridin-4-yl)pyrazin-2-yloxy)phenyl)methanone], below 25 nM. Same read-out and setting: in the case of `O=C(c1ccc(Oc2nccnc2OCC2CCOC2)cc1)c1nc2ccccc2[nH]1` (centres unmarked) [Example 171, (1H-benzo[d]imidazol-2-yl)(4-(3-((tetrahydrofuran-3-yl)methoxy)pyrazin-2-yloxy)phenyl)methanone] it was 100 to 250 nM; in that of `Fc1cccc2nc(Nc3ccc(Oc4cnccn4)cc3)sc12` [Example 217, 7-fluoro-N-(4-(pyrazin-2-yloxy)phenyl)benzo[d]thiazol-2-amine], 1000 to 5000 nM; in that of `O=C(c1ccc(Oc2nccnc2C(=O)NCCc2ccccn2)cc1)c1nc2ccccc2[nH]1` [Example 257, 3-(4-(1H-benzo[d]imidazole-2-carbonyl)phenoxy)-N-(2-(pyridin-2-yl)ethyl)pyrazine-2-carboxamide], below 25 nM. Regarding `c1ccc2sc(Nc3ccc(Oc4nccnc4-c4ccc(N5CCOCC5)nc4)cc3)nc2c1` [Example 138, N-(4-(3-(6-morpholinopyridin-3-yl)pyrazin-2-yloxy)phenyl)benzo[d]thiazol-2-amine], the IC50 was 100 to 250 nM. The same measure, in the same setting: for `CC(C)(O)[C@@H]1CCCN1c1nccnc1Oc1ccc(Nc2nc3ccccc3s2)cc1` [Example 59, (S)-2-(1-(3-(4-(BENZO[D]THIAZOL-2-YLAMINO)PHENOXY)PYRAZIN-2-YL)PYRROLIDIN-2-YL)PROPAN-2-OL] the value was below 25 nM. With `OC1CCN(c2nccnc2Oc2ccc(Nc3nc4ccccc4s3)cc2)CC1` [Example 67, 1-(3-(4-(benzo[d]thiazol-2-ylamino)phenoxy)pyrazin-2-yl)piperidin-4-ol], the IC50 is below 25 nM. On the same count and under the same terms, for `FCCN1CCC(c2nccnc2Oc2ccc(Nc3nc4ccccc4s3)cc2)CC1` [Example 236, N-(4-(3-(1-(2-fluoroethyl)piperidin-4-yl)pyrazin-2-yloxy)phenyl)benzo [d]thiazol-2-amine] the value was below 25 nM; for `CC(=O)N1CCC(c2nccnc2Oc2ccc(C(=O)c3nc4ccccc4[nH]3)cc2)C1` (centres unmarked) [Example 240, 1-(3-(3-(4-(1H-benzo[d]imidazole-2-carbonyl)phenoxy)pyrazin-2-yl)pyrrolidin-1-yl)ethanone], below 25 nM. The same measure, in the same setting: in the case of `C[C@]1(O)CC[C@@H](c2nccnc2Oc2ccc(C(=O)c3nc4ccccc4[nH]3)cc2)CC1` [Example 196, (1H-benzo[d]imidazol-2-yl)(4-(3-((1S,4S)-4-hydroxy-4-methylcyclohexyl)pyrazin-2-yloxy)phenyl)methanone] it was below 25 nM. As for `O=C(c1ccc(Oc2nccnc2[C@H]2CCC[C@H](O)C2)cc1)c1nc2ccccc2[nH]1` (racemic) [Example 190, (rac)-trans-(1H-benzo[d]imidazol-2-yl)(4-(3-(3-hydroxycyclohexyl)pyrazin-2-yloxy)phenyl)methanone], the IC50 is below 25 nM. Turning to `Cc1cc(-c2nccnc2Oc2ccc(Nc3nc4ccccc4s3)cc2)ccn1` [Example 135, N-(4-(3-(2-methylpyridin-4-yl)pyrazin-2-yloxy)phenyl)benzo[d]thiazol-2-amine], the IC50 is below 25 nM. In the case of `O=C(c1ccc(Oc2nccnc2C2CCOCC2)cc1)c1nc2ncccc2[nH]1` [Example 182, (1H-imidazo[4,5-b]pyridin-2-yl)(4-(3-(tetrahydro-2H-pyran-4-yl)pyrazin-2-yloxy)phenyl)methanone], the concentration for half-maximal inhibition (IC50) was below 25 nM.

Regarding `CC(=O)N1CC(c2nccnc2Oc2ccc(C(=O)c3nc4ccccc4[nH]3)cc2)C1` [Example 250, 1-(3-(3-(4-(1H-benzo[d]imidazole-2-carbonyl)phenoxy)pyrazin-2-yl)azetidin-1-yl)ethanone], the half-maximal inhibitory concentration (IC50) was below 25 nM. On the same count and under the same terms, in the case of `CC1CN(c2nccnc2Oc2ccc(Nc3nc4ccccc4s3)cc2)CC(=O)N1` (racemic) [Example 94, 4-(3-(4-(benzo[d]thiazol-2-ylamino)phenoxy)pyrazin-2-yl)-6-methylpiperazin-2-one] it was below 25 nM. On the same count and under the same terms, in the case of `COc1nccnc1Oc1ccc(C(=O)c2nc3ccccc3[nH]2)cc1` [Example 160, (1H-benzo[d]imidazol-2-yl)(4-(3-methoxypyrazin-2-yloxy)phenyl)methanone] it was 1000 to 5000 nM. As to `c1ccc2sc(Nc3ccc(Oc4nccnc4C4CCCC4)cc3)nc2c1` [compound 223, N-(4-(3-cyclopentylpyrazin-2-yloxy)phenyl)benzo [d]thiazol-2-amine], the IC50 was below 25 nM. The same measure, in the same setting: in the case of “(6-fluoro-1-methyl-1H-benzo[d]imidazol-2-yl)(4-(3-(tetrahydro-2H-pyran-4-yl)pyrazin-2-yloxy)phenyl)methanone and (5-fluoro-1-methyl-1H-benzo[d]imidazol-2-yl)(4-(3-(tetrahydro-2H-pyran-4-yl)pyrazin-2-yloxy)phenyl)methanone [Example 185]” it was below 25 nM; in that of `NC(=O)C1CCN(c2nccnc2Oc2ccc(Nc3nc4ccccc4s3)cc2)CC1` [Example 81, 1-(3-(4-(benzo[d]thiazol-2-ylamino)phenoxy)pyrazin-2-yl)piperidine-4-carboxamide], below 25 nM.

The assay is the same for the next values; noted with them: PDE10 enzyme inhibition; average IC50 data for each compound; read-out: Average IC50.
`c1ccc(Nc2ccc(Oc3nccnc3NCC3CCNCC3)cc2)nc1`: the concentration for half-maximal inhibition (IC50) was found to be 814 nM. As for `COc1cncc(-c2nccnc2Oc2ccc(C(=O)c3nc4ccccc4[nH]3)cc2)c1` [drawing 917], the half-maximal inhibitory concentration (IC50) was found to be 5.42 nM. `C[C@@H]1CN(c2nccnc2Oc2ccc(Nc3nc4ccccc4s3)cc2)CC(=O)N1` [drawing 834]: the IC50 worked out at 3.05 nM. For `CC(=O)N1CC[C@@H](c2nccnc2Oc2ccc(C(=O)c3nc4ccccc4[nH]3)cc2)C1` (stereo in doubt), the half-inhibitory concentration (IC50) was determined as 7.63 nM. As to `CC(C)(C)OC(=O)N1CC=C(c2nccnc2Oc2ccc(Nc3nc4ccccc4s3)c(F)c2)CC1` [drawing 983], the IC50 turned out to be 70 nM. In the case of `COC(=O)N1CCC(c2nccnc2Oc2ccc(Nc3nc4ccccc4s3)cc2)CC1`, the IC50 came out at 0.206 nM. On the same count and under the same terms, in the case of `COc1cnccc1-c1nccnc1Oc1ccc(Nc2nc3ccccc3s2)cc1` [drawing 961] it was 1.91 nM; in that of `C[C@@H](F)C(=O)N1CCC(c2nccnc2Oc2ccc(C(=O)c3nc4ccccc4[nH]3)cc2)CC1` [drawing 976], 0.005 nM. Take `CC(C)Oc1nccnc1Oc1ccc(C(=O)c2nc3ccccc3[nH]2)cc1` [drawing 844]: the IC50 was 56.6 nM.

`Fc1cccc2nc(Nc3ccc(Oc4nccnc4Cl)cc3)sc12` [drawing 826]: the half-maximal inhibitory concentration (IC50) came out at 751 nM.

For the compound `CC(=O)OCC(=O)N1CCC(c2nccnc2Oc2ccc(C(=O)c3nc4ccccc4[nH]3)cc2)CC1` [drawing 991], the half-maximal inhibitory concentration (IC50) was 0.0175 nM. With `COc1ncc(-c2nccnc2Oc2ccc(Nc3nc4ccccc4s3)cc2)cn1` [drawing 783], the IC50 stood at 23.2 nM. Still for that read-out and setting: for `c1ccc2sc(Nc3ccc(Oc4nccnc4-c4cccc5ncccc45)cc3)nc2c1` [drawing 821] the value was 14.4 nM; for `O=C(c1ccc(Oc2nccnc2C(=O)NCCc2ccccn2)cc1)c1nc2ccccc2[nH]1` [drawing 795], 8.08 nM. On the same count and under the same terms, in the case of `N#CC1CN(c2nccnc2Oc2ccc(Nc3nc4ccccc4s3)cc2)C1` [drawing 776] it was 6.75 nM. For the compound `OC1(c2nccnc2Oc2ccc(Nc3nc4ccccc4s3)cc2)CCOCC1` [drawing 902], the IC50 was determined as 0.902 nM. Consider `O=C(c1ccc(Oc2nccnc2-c2ccncc2)cc1)c1nc2ccccc2[nH]1` [drawing 755], for which the half-inhibitory concentration (IC50) amounted to 7.5 nM. With `O=C(c1ccc(Oc2nccnc2-c2cccc3ncccc23)cc1)c1nc2ccccc2[nH]1` [drawing 803], the half-maximal inhibitory concentration (IC50) was 3.18 nM. The same measure, in the same setting: for `FC1(c2nccnc2Oc2ccc(Nc3nc4ccccc4s3)cc2)CCOCC1` [drawing 927] the value was 12.2 nM; for `COc1ncccc1-c1nccnc1Oc1ccc(C(=O)c2nc3ccccc3n2CCF)cc1` [drawing 994], 5.83 nM; for `O=C(c1ccc(Oc2nccnc2OCc2ccccn2)cc1)c1nc2ccccc2[nH]1` [drawing 849], 1710 nM.

The same assay, now with this note: PDE10 enzyme inhibition; chiral compounds separated from racemic mixtures; read-out: IC50.
Turning to `C[C@@H](F)C(=O)N1CCC(c2nccnc2Oc2ccc(C(=O)c3nc4ccccc4[nH]3)cc2)CC1` [Example 277, (R)-1-(4-(3-(4-(1H-benzo[d]imidazole-2-carbonyl)phenoxy)pyrazin-2-yl)piperidin-1-yl)-2-fluoropropan-1-one], the 50% inhibitory concentration (IC50) was below 25 nM. The same measure, in the same setting: in the case of `O=C(c1ccc(Oc2nccnc2[C@H]2CCC[C@@H](O)C2)cc1)c1nc2ccccc2[nH]1` [Example 270, (1H-benzo[d]imidazol-2-yl)(4-(3-((1S,3R)-3-hydroxycyclohexyl)pyrazin-2-yloxy)phenyl) methanone] it was below 25 nM; in that of `COC(=O)[C@H]1CCN(c2nccnc2Oc2ccc(C(=O)c3nc4ccccc4[nH]3)cc2)C1` [Example 265, (S)-methyl 1-(3-(4-(1H-benzo[d]imidazole-2-carbonyl)phenoxy)pyrazin-2-yl)pyrrolidine-3-carboxylate], below 25 nM.
